Test system: NHBE cells
Assay: Biolog metabolic array: substrate use by NHBE cells with or without CA09 infection
Assay type: cell-based, human
Conditions: for Substrate use, 590 nm absorbance normalized to zero hour, 0 hr: Biolog PMM2, 0 hr; for Substrate use, 590 nm absorbance normalized to zero hour, 1 hr: Biolog PMM2, 1 hr; for Substrate use, 590 nm absorbance normalized to zero hour, 5 hr: Biolog PMM2, 5 hr; for Substrate use, 590 nm absorbance normalized to zero hour, 7 hr: Biolog PMM2, 7 hr
[1] = Control (uninfected) NHBE cells
[2] = Virus (CA09-infected, MOI 1) NHBE cells
[3] = Virus: CA09-infected NHBE cells, MOI 1, Biolog PMM2
[4] = Virus (CA09, MOI 1) infected NHBE cells
[5] = Virus (CA09-infected NHBE cells, MOI 1)

## CO[C@H]1O[C@H](CO)[C@H](O)[C@H](O)[C@H]1O [a-Methyl-D-Galactoside]
[1]
  590 nm absorbance normalized to zero hour (substrate use), 0 hr: 1.00
  590 nm absorbance normalized to zero hour (substrate use), 1 hr: 1.13
  590 nm absorbance normalized to zero hour (substrate use), 2 hr: 0.68
  590 nm absorbance normalized to zero hour (substrate use), 3 hr: 0.80
  590 nm absorbance normalized to zero hour (substrate use), 4 hr: 0.84
  590 nm absorbance normalized to zero hour (substrate use), 6 hr: 1.20
  590 nm absorbance normalized to zero hour (substrate use), 8 hr: 1.15
  590 nm absorbance normalized to zero hour (substrate use), 9 hr: 1.29
  590 nm absorbance normalized to zero hour (substrate use), 10 hr: 1.42
  590 nm absorbance normalized to zero hour (substrate use), 11 hr: 1.06
  Substrate use, 590 nm absorbance normalized to zero hour, 0 hr: 1.00
  Substrate use, 590 nm absorbance normalized to zero hour, 1 hr: 1.13
  Substrate use, 590 nm absorbance normalized to zero hour, 5 hr: 1.01
  Substrate use, 590 nm absorbance normalized to zero hour, 7 hr: 1.15
[2]
  590 nm absorbance normalized to zero hour (substrate use), 0 hr: 1.00
  590 nm absorbance normalized to zero hour (substrate use), 1 hr: 2.91
  590 nm absorbance normalized to zero hour (substrate use), 2 hr: 1.88
  590 nm absorbance normalized to zero hour (substrate use), 3 hr: 1.16
  590 nm absorbance normalized to zero hour (substrate use), 4 hr: 1.24
  590 nm absorbance normalized to zero hour (substrate use), 5 hr: 1.43
  590 nm absorbance normalized to zero hour (substrate use), 6 hr: 1.51
  590 nm absorbance normalized to zero hour (substrate use), 7 hr: 1.59
  590 nm absorbance normalized to zero hour (substrate use), 8 hr: 1.67
  590 nm absorbance normalized to zero hour (substrate use), 9 hr: 1.83
  590 nm absorbance normalized to zero hour (substrate use), 10 hr: 1.89
  590 nm absorbance normalized to zero hour (substrate use), 11 hr: 2.05
[3]
  590 nm absorbance normalized to zero hour (substrate use), 0 hr: 1.00
  590 nm absorbance normalized to zero hour (substrate use), 1 hr: 2.91
  590 nm absorbance normalized to zero hour (substrate use), 2 hr: 1.88
  590 nm absorbance normalized to zero hour (substrate use), 3 hr: 1.16
  590 nm absorbance normalized to zero hour (substrate use), 4 hr: 1.24
  590 nm absorbance normalized to zero hour (substrate use), 5 hr: 1.43
  590 nm absorbance normalized to zero hour (substrate use), 6 hr: 1.51
  590 nm absorbance normalized to zero hour (substrate use), 7 hr: 1.59
  590 nm absorbance normalized to zero hour (substrate use), 8 hr: 1.67
  590 nm absorbance normalized to zero hour (substrate use), 9 hr: 1.83
  590 nm absorbance normalized to zero hour (substrate use), 10 hr: 1.89
  590 nm absorbance normalized to zero hour (substrate use), 11 hr: 2.05

## CO[C@H]1O[C@H](CO)[C@@H](O)[C@H](O)[C@H]1O [a-Methyl-D-Glucoside]
[1]
  590 nm absorbance normalized to zero hour (substrate use), 0 hr: 1.00
  590 nm absorbance normalized to zero hour (substrate use), 1 hr: 1.18
  590 nm absorbance normalized to zero hour (substrate use), 2 hr: 1.07
  590 nm absorbance normalized to zero hour (substrate use), 3 hr: 1.02
  590 nm absorbance normalized to zero hour (substrate use), 4 hr: 0.58
  590 nm absorbance normalized to zero hour (substrate use), 6 hr: 0.90
  590 nm absorbance normalized to zero hour (substrate use), 8 hr: 0.74
  590 nm absorbance normalized to zero hour (substrate use), 9 hr: 0.79
  590 nm absorbance normalized to zero hour (substrate use), 10 hr: 0.83
  590 nm absorbance normalized to zero hour (substrate use), 11 hr: 0.93
  Substrate use, 590 nm absorbance normalized to zero hour, 0 hr: 1.00
  Substrate use, 590 nm absorbance normalized to zero hour, 1 hr: 1.18
  Substrate use, 590 nm absorbance normalized to zero hour, 5 hr: 0.76
  Substrate use, 590 nm absorbance normalized to zero hour, 7 hr: 0.68
[4]
  Substrate use, 590 nm absorbance normalized to zero hour, 0 hr: 1.00
  Substrate use, 590 nm absorbance normalized to zero hour, 1 hr: 1.29
  Substrate use, 590 nm absorbance normalized to zero hour, 5 hr: 2.31
  Substrate use, 590 nm absorbance normalized to zero hour, 7 hr: 2.67
[2]
  590 nm absorbance normalized to zero hour (substrate use), 0 hr: 1.00
  590 nm absorbance normalized to zero hour (substrate use), 1 hr: 1.29
  590 nm absorbance normalized to zero hour (substrate use), 2 hr: 1.66
  590 nm absorbance normalized to zero hour (substrate use), 3 hr: 1.87
  590 nm absorbance normalized to zero hour (substrate use), 4 hr: 1.99
  590 nm absorbance normalized to zero hour (substrate use), 6 hr: 2.50
  590 nm absorbance normalized to zero hour (substrate use), 8 hr: 2.77
  590 nm absorbance normalized to zero hour (substrate use), 9 hr: 3.14
  590 nm absorbance normalized to zero hour (substrate use), 10 hr: 3.10
  590 nm absorbance normalized to zero hour (substrate use), 11 hr: 3.31

## CO[C@H]1O[C@H](CO)[C@@H](O)[C@H](O)[C@@H]1O [a-Methyl-D-Mannoside]
[1]
  590 nm absorbance normalized to zero hour (substrate use), 0 hr: 1.00
  590 nm absorbance normalized to zero hour (substrate use), 1 hr: 1.26
  590 nm absorbance normalized to zero hour (substrate use), 2 hr: 1.58
  590 nm absorbance normalized to zero hour (substrate use), 3 hr: 1.74
  590 nm absorbance normalized to zero hour (substrate use), 4 hr: 1.89
  590 nm absorbance normalized to zero hour (substrate use), 6 hr: 2.77
  590 nm absorbance normalized to zero hour (substrate use), 8 hr: 2.13
  590 nm absorbance normalized to zero hour (substrate use), 9 hr: 2.16
  590 nm absorbance normalized to zero hour (substrate use), 10 hr: 2.95
  590 nm absorbance normalized to zero hour (substrate use), 11 hr: 2.58
  Substrate use, 590 nm absorbance normalized to zero hour, 0 hr: 1.00
  Substrate use, 590 nm absorbance normalized to zero hour, 1 hr: 1.26
  Substrate use, 590 nm absorbance normalized to zero hour, 5 hr: 2.33
  Substrate use, 590 nm absorbance normalized to zero hour, 7 hr: 2.46
[5]
  590 nm absorbance normalized to zero hour (substrate use), 0 hr: 1.00
  590 nm absorbance normalized to zero hour (substrate use), 1 hr: 0.38
  590 nm absorbance normalized to zero hour (substrate use), 2 hr: 0.54
  590 nm absorbance normalized to zero hour (substrate use), 3 hr: 0.64
  590 nm absorbance normalized to zero hour (substrate use), 4 hr: 0.69
  590 nm absorbance normalized to zero hour (substrate use), 5 hr: 0.83
  590 nm absorbance normalized to zero hour (substrate use), 6 hr: 0.89
  590 nm absorbance normalized to zero hour (substrate use), 7 hr: 0.93
  590 nm absorbance normalized to zero hour (substrate use), 8 hr: 0.99
  590 nm absorbance normalized to zero hour (substrate use), 9 hr: 1.10
  590 nm absorbance normalized to zero hour (substrate use), 10 hr: 1.14
  590 nm absorbance normalized to zero hour (substrate use), 11 hr: 1.24
[3]
  590 nm absorbance normalized to zero hour (substrate use), 0 hr: 1.00
  590 nm absorbance normalized to zero hour (substrate use), 1 hr: 0.38
  590 nm absorbance normalized to zero hour (substrate use), 2 hr: 0.54
  590 nm absorbance normalized to zero hour (substrate use), 3 hr: 0.64
  590 nm absorbance normalized to zero hour (substrate use), 4 hr: 0.69
  590 nm absorbance normalized to zero hour (substrate use), 5 hr: 0.83
  590 nm absorbance normalized to zero hour (substrate use), 6 hr: 0.89
  590 nm absorbance normalized to zero hour (substrate use), 7 hr: 0.93
  590 nm absorbance normalized to zero hour (substrate use), 8 hr: 0.99
  590 nm absorbance normalized to zero hour (substrate use), 9 hr: 1.10
  590 nm absorbance normalized to zero hour (substrate use), 10 hr: 1.14
  590 nm absorbance normalized to zero hour (substrate use), 11 hr: 1.24
